US20190300882A1, “METHODS OF TREATING NEUROBLASTOMA AND REAGENTS THEREFOR” (GARVAN INSTITUTE OF MEDICAL RESEARCH, priority 2016, published 2019)

What was measured:
Format in all cases: cell-based
[1] = system: SK-N-DZ MYCN-amplified neuroblastoma cell line; experiment: Secondary validation screen of lethal miRNAs, additional cell line, cell viability; conditions: miRNA mimic alone
Protocol: (§1) Each of the cell lines were reverse transfected in 384-well plate format with 25 nM of a miRNA from the Dharmacon miRNA mimic or inhibitor libraries (version 16.0) using liquid-handling robot Calliper Sciclone ALH3000 according to the conditions described in Table 3. After 24 hours, media was changed using BioTek 406, and 144 hours post-transfection, cell viability was determined using CellTiter-Glo luminescent assay (Promega) at 1:2 dilution. Luminescence measurements were taken on the Synergy H4 high-throughput multimode microplate reader. All screens were performed in duplicates.
(§2) The secondary validation screens were performed in accordance with the genome-wide screens described in Example 1 and Example 2, respectively, with the exception that an additional MYCN-amplified neuroblastoma cell line (SK-N-DZ) was added to each screen.
(§3) Furthermore, five additional non-active miRNAs discovered to have no measureable effect across all treatment groups of the genome-wide screen (‘non-lethal’ miRNAs) were included as negative controls.

SHEP cells [2] = experiment: Secondary validation screen of lethal miRNAs, cell viability; conditions: miRNA mimic alone
Protocol: as §1, §2, §3

KELLY cells [3] = experiment: as above; conditions: miRNA mimic alone
Protocol: as §1, §2, §3

KELLY cells [4] = experiment: Primary functional miRNA mimic screen, CellTiter-Glo cell viability; conditions: miRNA mimic 25 nM alone, 144 hours post-transfection
Source text: Breast cancer cell lines (MDA-MB-231, MDA-MB-468, SK-BR-3; BT474) and prostate cancer cell lines (PC3, DU145) were obtained from American Type Culture Collection (ATCC). Neuroblastoma cell lines (KELLY, SHEP) were received from Children's Cancer Institute (CCIA). The KELLY cells were selected as a MYCN amplified neuroblastoma cell line and the SHEP cells were selected as a MYCN wild-type neuroblastoma cell line. All breast and prostate cancer cell lines were cultivated in RPMI media supplemented with 10% FCS, HEPES, and insulin. […] Each of the cell lines were reverse transfected in 384-well plate format with 25 nM of a miRNA from the Dharmacon miRNA mimic or inhibitor libraries (version 16.0) using liquid-handling robot Calliper Sciclone ALH3000 according to the conditions described in Table 3. […] Luminescence measurements were taken on the Synergy H4 high-throughput multimode microplate reader. All screens were performed in duplicates. Raw viability was normalised to a nontargeting control (OTP) or mock wells, and death genes or controls inducing varying levels of death were used to monitor transfection efficiency and to define dynamic range in each screen (FIG. 1). To define screen hits, normalised viability scores were binned in the following manner: CV1 bin included candidates with viability >=0.8; […] Only LC candidates were defined as screen hits.

SHEP cells [5] = experiment: as above; conditions: miRNA mimic 25 nM alone, 144 hours post-transfection
Source text: Breast cancer cell lines (MDA-MB-231, MDA-MB-468, SK-BR-3; BT474) and prostate cancer cell lines (PC3, DU145) were obtained from American Type Culture Collection (ATCC). Neuroblastoma cell lines (KELLY, SHEP) were received from Children's Cancer Institute (CCIA). The KELLY cells were selected as a MYCN amplified neuroblastoma cell line and the SHEP cells were selected as a MYCN wild-type neuroblastoma cell line.
All breast and prostate cancer cell lines were cultivated in RPMI media supplemented with 10% FCS, HEPES, and insulin. The neuroblastoma cell lines, KELLY, SHEP, were grown in 10% FCS/RPMI and 10% FCS/DMEM, respectively.
as §1
Raw viability was normalised to a nontargeting control (OTP) or mock wells, and death genes or controls inducing varying levels of death were used to monitor transfection efficiency and to define dynamic range in each screen (FIG. 1). To define screen hits, normalised viability scores were binned in the following manner: CV1 bin included candidates with viability >=0.8; CV2 bin included candidates with viability <0.8 and >0.5, and LC bin was assigned to candidates with normalised viability <=0.5. Only LC candidates were defined as screen hits.

hsa-miR-542-3p (guide UGUGACAGAUUGAUAACUGAAA; chemistry not given here; listed as Homo sapiens)
Additional cell line Viability (% of control) SKNDZ [1]: 28 % of control | Secondary screen Viability (% of control) SHEP (SHEP cells [2]): 38 % of control | Secondary screen Viability (% of control) KELLY (KELLY cells [3]): 20 % of control | Primary screen Viability (% of control) KELLY (KELLY cells [4]): 6 % of control | Primary screen Viability (% of control) SHEP (SHEP cells [5]): 29 % of control

hsa-miR-1231 (GUGUCUGGGCGGACAGCUGC; chemistry not given here; listed as Homo sapiens)
Additional cell line Viability (% of control) SKNDZ [1]: 98 % of control | Secondary screen Viability (% of control) SHEP (SHEP cells [2]): 46 % of control | Secondary screen Viability (% of control) KELLY (KELLY cells [3]): 48 % of control | Primary screen Viability (% of control) KELLY (KELLY cells [4]): 36 % of control | Primary screen Viability (% of control) SHEP (SHEP cells [5]): 15 % of control

hsa-miR-552 (guide AACAGGUGACUGGUUAGACAA; chemistry not given here; listed as Homo sapiens)
Additional cell line Viability (% of control) SKNDZ [1]: 36 % of control | Secondary screen Viability (% of control) SHEP (SHEP cells [2]): 47 % of control | Secondary screen Viability (% of control) KELLY (KELLY cells [3]): 2 % of control | Primary screen Viability (% of control) KELLY (KELLY cells [4]): 2 % of control | Primary screen Viability (% of control) SHEP (SHEP cells [5]): 36 % of control

hsa-miR-148b-5p (AAGUUCUGUUAUACACUCAGGC; chemistry not given here; listed as Homo sapiens)
Additional cell line Viability (% of control) SKNDZ [1]: 21 % of control | Secondary screen Viability (% of control) SHEP (SHEP cells [2]): 34 % of control | Secondary screen Viability (% of control) KELLY (KELLY cells [3]): 8 % of control | Primary screen Viability (% of control) KELLY (KELLY cells [4]): 5 % of control | Primary screen Viability (% of control) SHEP (SHEP cells [5]): 20 % of control

hsa-miR-517c-3p (guide AUCGUGCAUCCUUUUAGAGUGU; chemistry not given here; listed as Homo sapiens)
Additional cell line Viability (% of control) SKNDZ [1]: 21 % of control | Secondary screen Viability (% of control) SHEP (SHEP cells [2]): 43 % of control | Secondary screen Viability (% of control) KELLY (KELLY cells [3]): 27 % of control | Primary screen Viability (% of control) KELLY (KELLY cells [4]): 26 % of control | Primary screen Viability (% of control) SHEP (SHEP cells [5]): 40 % of control

hsa-miR-103a-2-5p (AGCUUCUUUACAGUGCUGCCUUG; chemistry not given here; listed as Homo sapiens)
Additional cell line Viability (% of control) SKNDZ [1]: 52 % of control | Secondary screen Viability (% of control) SHEP (SHEP cells [2]): 56 % of control | Secondary screen Viability (% of control) KELLY (KELLY cells [3]): 39 % of control | Primary screen Viability (% of control) KELLY (KELLY cells [4]): 26 % of control | Primary screen Viability (% of control) SHEP (SHEP cells [5]): 46 % of control

hsa-miR-892b (guide CACUGGCUCCUUUCUGGGUAGA; chemistry not given here; listed as Homo sapiens)
Additional cell line Viability (% of control) SKNDZ [1]: 54 % of control | Secondary screen Viability (% of control) SHEP (SHEP cells [2]): 34 % of control | Secondary screen Viability (% of control) KELLY (KELLY cells [3]): 3 % of control | Primary screen Viability (% of control) KELLY (KELLY cells [4]): 5 % of control | Primary screen Viability (% of control) SHEP (SHEP cells [5]): 30 % of control

hsa-miR-634 (guide AACCAGCACCCCAACUUUGGAC; chemistry not given here; listed as Homo sapiens)
Additional cell line Viability (% of control) SKNDZ [1]: 41 % of control | Secondary screen Viability (% of control) SHEP (SHEP cells [2]): 12 % of control | Secondary screen Viability (% of control) KELLY (KELLY cells [3]): 13 % of control | Primary screen Viability (% of control) KELLY (KELLY cells [4]): 7 % of control | Primary screen Viability (% of control) SHEP (SHEP cells [5]): 8 % of control

hsa-miR-654-5p (guide UGGUGGGCCGCAGAACAUGUGC; chemistry not given here; listed as Homo sapiens)
Additional cell line Viability (% of control) SKNDZ [1]: 28 % of control | Secondary screen Viability (% of control) SHEP (SHEP cells [2]): 45 % of control | Secondary screen Viability (% of control) KELLY (KELLY cells [3]): 7 % of control | Primary screen Viability (% of control) KELLY (KELLY cells [4]): 6 % of control | Primary screen Viability (% of control) SHEP (SHEP cells [5]): 30 % of control

hsa-miR-544a (guide AUUCUGCAUUUUUAGCAAGUUC; chemistry not given here; listed as Homo sapiens)
Additional cell line Viability (% of control) SKNDZ [1]: 59 % of control | Secondary screen Viability (% of control) SHEP (SHEP cells [2]): 61 % of control | Secondary screen Viability (% of control) KELLY (KELLY cells [3]): 17 % of control | Primary screen Viability (% of control) KELLY (KELLY cells [4]): 7 % of control | Primary screen Viability (% of control) SHEP (SHEP cells [5]): 32 % of control

hsa-miR-489 (guide GUGACAUCACAUAUACGGCAGC; chemistry not given here; listed as Homo sapiens)
Additional cell line Viability (% of control) SKNDZ [1]: 33 % of control | Secondary screen Viability (% of control) SHEP (SHEP cells [2]): 43 % of control | Secondary screen Viability (% of control) KELLY (KELLY cells [3]): 4 % of control | Primary screen Viability (% of control) KELLY (KELLY cells [4]): 5 % of control | Primary screen Viability (% of control) SHEP (SHEP cells [5]): 40 % of control

hsa-miR-876-3p (guide UGGUGGUUUACAAAGUAAUUCA; chemistry not given here; listed as Homo sapiens)
Additional cell line Viability (% of control) SKNDZ [1]: 48 % of control | Secondary screen Viability (% of control) SHEP (SHEP cells [2]): 51 % of control | Secondary screen Viability (% of control) KELLY (KELLY cells [3]): 6 % of control | Primary screen Viability (% of control) KELLY (KELLY cells [4]): 6 % of control | Primary screen Viability (% of control) SHEP (SHEP cells [5]): 94 % of control

hsa-miR-491-3p (guide CUUAUGCAAGAUUCCCUUCUAC; chemistry not given here; listed as Homo sapiens)
Additional cell line Viability (% of control) SKNDZ [1]: 47 % of control | Secondary screen Viability (% of control) SHEP (SHEP cells [2]): 34 % of control | Secondary screen Viability (% of control) KELLY (KELLY cells [3]): 12 % of control | Primary screen Viability (% of control) KELLY (KELLY cells [4]): 12 % of control | Primary screen Viability (% of control) SHEP (SHEP cells [5]): 26 % of control

hsa-miR-192-3p (CUGCCAAUUCCAUAGGUCACAG; chemistry not given here; listed as Homo sapiens)
Additional cell line Viability (% of control) SKNDZ [1]: 97 % of control | Secondary screen Viability (% of control) SHEP (SHEP cells [2]): 49 % of control | Secondary screen Viability (% of control) KELLY (KELLY cells [3]): 54 % of control | Primary screen Viability (% of control) KELLY (KELLY cells [4]): 42 % of control | Primary screen Viability (% of control) SHEP (SHEP cells [5]): 43 % of control

hsa-miR-550a-3p (guide UGUCUUACUCCCUCAGGCACAU; chemistry not given here; listed as Homo sapiens)
Additional cell line Viability (% of control) SKNDZ [1]: 82 % of control | Secondary screen Viability (% of control) SHEP (SHEP cells [2]): 94 % of control | Secondary screen Viability (% of control) KELLY (KELLY cells [3]): 15 % of control | Primary screen Viability (% of control) KELLY (KELLY cells [4]): 4 % of control | Primary screen Viability (% of control) SHEP (SHEP cells [5]): 61 % of control
